# Experimental data taken from PubChem BioAssay (NCI).
#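 Briefly, cells in 96-well plates were exposed to five compound concentrations for 48 h, and endpoints were estimated by linear interpolation. GI50 marks 50% less growth. TGI denotes the concentration required for complete inhibition of growth.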 *1 amine or outer side, *2 acyl side, *3 side chain or, on linkers, in order; H or OH if unused. Where a SMILES comes first, the peptide text is derived from it. Bridges are numbered along the chain shown (N, C = ends). [ ]: non-standard residue; d: D form. The star is where a group is joined. X38 = CC[C@H](C)[C@@H](N[*:1])[C@@H](O)CC(=O)[*:2]; NMeY = CN[C@@H](Cc1ccc(O)cc1)C(=O)O; dNMeL = CN[C@H](CC(C)C)C(=O)O; Hiv = CC(C)[C@H](O)C(=O)O; Pyruvoyl = CC(=O)C(=O)*
# Assays:
# Assay in all cases: inhibition of tumour cell growth, NCI panel, 48 h
# HOP-62 NSCLC = test system: HOP-62 NSCLC
# MCF7 breast = test system: MCF7 breast
# SNB-19 CNS = test system: SNB-19 CNS
# U251 CNS = test system: U251 CNS
# OVCAR-4 ovarian = test system: OVCAR-4 ovarian
# SW-620 colon = test system: SW-620 colon
# 786-0 renal = test system: 786-0 renal
# SF-539 CNS = test system: SF-539 CNS
# CAKI-1 renal = test system: CAKI-1 renal
# M14 melanoma = test system: M14 melanoma
Compound,TGI (HOP-62 NSCLC) [µM],TGI (MCF7 breast) [µM],TGI (SNB-19 CNS) [µM],TGI (U251 CNS) [µM],TGI (OVCAR-4 ovarian) [µM],TGI (SW-620 colon) [µM],TGI (786-0 renal) [µM],TGI (SF-539 CNS) [µM],TGI (CAKI-1 renal) [µM],TGI (M14 melanoma) [µM],GI50 (HOP-62 NSCLC) [µM],GI50 (SNB-19 CNS) [µM],GI50 (U251 CNS) [µM],GI50 (OVCAR-4 ovarian) [µM],GI50 (SW-620 colon) [µM],GI50 (SF-539 CNS) [µM],GI50 (CAKI-1 renal) [µM],GI50 (M14 melanoma) [µM]
CN(C)c1ccc(-c2c(C#N)c(N)[nH]c(=S)c2C#N)cc1,> 100,> 100,> 100,> 100,> 100,> 100,> 100,> 100,> 100,> 100,,,,,,,,
O=C1CC(=O)NC(=NN2C(=O)CSC2c2ccc(Cl)c(Cl)c2)N1 (stereo not drawn),> 100,> 100,,> 100,> 100,> 100,> 100,> 100,> 100,> 100,,,,,,,,
CCOC(=O)CCC(NC(=O)Cc1ccc(Nc2nc3ccccc3nc2-c2ccccc2)cc1)C(=O)OCC (stereo not drawn),> 100,> 100,> 100,78.1,> 100,> 100,> 100,> 100,> 100,> 100,,,,,,,,
CCOC(=O)/C(C)=C\[C@@]1(C)O[C@@H](C)[C@@](C)(OC(C)=O)[C@@H]1OC(C)=O,> 100,> 100,> 100,> 100,> 100,> 100,> 100,> 100,> 100,> 100,,,,,,,,
Fc1c(F)c(C(F)(F)F)c(F)c(F)c1N/N=C\c1c[nH]c2ccccc12,4.16,10.3,12,12.8,6.72,12.5,14.5,,8.14,4.21,,,,,,,,
CC1=C/C(=N\OCC(=O)O)CC(c2ccc(C(C)C)cc2)C1 (stereo not drawn),,> 100,,> 100,,> 100,> 100,> 100,> 100,> 100,,,,,,,,
O=C1CSC2(CC(/C=C/c3ccccc3O)=NN2c2cccc(S(=O)(=O)O)c2)N1c1nc2ccccc2s1 (stereo not drawn),,> 100,> 100,> 100,88.5,> 100,98.7,48.8,> 100,> 100,,,,,,,,
CN(C)c1ccc(/C=C/C=C\C2=CC(=C\C=C/C=C3C=CC(=[N+](C)C)C=C3)/Sc3ccccc32)cc1,> 100,,> 100,,,> 100,> 100,> 100,,27.5,,,,,,,,
COc1cc(/C=C/C(=O)c2sc(-n3nc(-c4ccccc4)cc3-c3ccccc3)nc2C)ccc1O,> 100,,,> 100,,> 100,> 100,> 100,> 100,,,,,,,,,
CC(=O)/C(=C\c1ccco1)C(=O)Nc1ccccc1,> 100,,> 100,> 100,> 100,> 100,> 100,> 100,> 100,> 100,,,,,,,,
NC1CC(=O)c2cc(Cl)sc21 (stereo not drawn),> 100,,> 100,> 100,> 100,> 100,> 100,> 100,> 100,> 100,,,,,,,,
C/C(CN1C(=O)c2ccccc2C1=O)=N\NS(=O)(=O)c1ccc(Br)cc1,> 100,,> 100,> 100,> 100,> 100,> 100,> 100,> 100,> 100,,,,,,,,
COC(=O)N1C[C@@]2(C=CC3(CC2)OCCO3)c2ccccc21,> 100,> 100,> 100,> 100,> 100,> 100,> 100,,> 100,> 100,,,,,,,,
COc1cc(S(=O)(=O)Nc2ccc(-c3csc(N4C(=O)CSC4c4cccs4)n3)cc2)ccc1Cl (stereo not drawn),> 100,31.7,> 100,,82.9,68.5,> 100,61.6,> 100,> 100,,,,,,,,
CCOC(=O)CSc1ccnc(=O)[nH]1,,,> 100,> 100,,> 100,> 100,> 100,> 100,> 100,,,,,,,,
NC(=S)NNC(=O)/C(=C/c1ccc(/C=C(\NC(=O)c2ccccc2)C(=O)NNC(N)=S)cc1)NC(=O)c1ccccc1,> 100,,> 100,> 100,> 100,> 100,> 100,> 100,> 100,> 100,,,,,,,,
O=C(NO)c1ccc([N+](=O)[O-])cc1,> 100,,> 100,> 100,,> 100,> 100,> 100,> 100,> 100,,,,,,,,
CCCCCCn1c(SCC)c2ccccc2c1-c1nc(F)nc(F)n1,> 100,,> 100,> 100,> 100,> 100,> 100,> 100,> 100,> 100,,,,,,,,
O=P(O)(OCC(O)O)OCC(O)O,> 100,,> 100,> 100,,> 100,> 100,> 100,,,,,,,,,,
COc1ccc(/C=C2\OC(=O)C(Cl)=C2c2ccc(OC)cc2)cc1,> 100,,> 100,> 100,> 100,> 100,> 100,> 100,> 100,> 100,,,,,,,,
c1ccc(Nc2nnc(CSc3nc(-c4ccccc4)c(-c4ccccc4)[nH]3)s2)cc1,41,,,28.1,87.7,,39.3,43.6,,28.5,,,,,,,,
O=S(=O)([O-])[O-].[Fe+2].c1ccc(/C(=N\Nc2ccccn2)c2ccccn2)cc1,12,,15.4,4.66,2.96,11.2,10.7,6.42,10.5,4.89,,,,,,,,
NC(=O)OCC(COc1ccc(Cl)cc1)OC(=O)c1ccccc1Cl (stereo not drawn),49.2,,97.7,27.6,,36.4,36.6,36.1,74.8,32.8,,,,,,,,

Compound,TGI (HOP-62 NSCLC) [µM],TGI (MCF7 breast) [µM],TGI (SNB-19 CNS) [µM],TGI (U251 CNS) [µM],TGI (OVCAR-4 ovarian) [µM],TGI (SW-620 colon) [µM],TGI (786-0 renal) [µM],TGI (SF-539 CNS) [µM],TGI (CAKI-1 renal) [µM],TGI (M14 melanoma) [µM],GI50 (HOP-62 NSCLC) [µM],GI50 (SNB-19 CNS) [µM],GI50 (U251 CNS) [µM],GI50 (OVCAR-4 ovarian) [µM],GI50 (SW-620 colon) [µM],GI50 (SF-539 CNS) [µM],GI50 (CAKI-1 renal) [µM],GI50 (M14 melanoma) [µM]
NCC1(N2CCOCC2)C2CCCC21CO (stereo not drawn),> 100,,> 100,> 100,> 100,> 100,> 100,> 100,> 100,> 100,,,,,,,,
CC(C)=CCCC1(C)C=Cc2c(c(C)cc3c2[nH]c2cc(O)ccc23)O1 (stereo not drawn),> 25,,> 25,> 25,> 25,> 25,> 25,> 25,,> 25,,,,,,,,
O=C1c2cc3c(cc2CC12Cc1cc4c(cc1C2=O)CCCC4)CCCC3,57.1,> 100,> 100,> 100,46.7,> 100,52.4,> 100,,> 100,,,,,,,,
N#CC1(C#N)C2CCCCC23OC(=N)C1(C#N)C(c1ccco1)O3 (stereo not drawn),,54,> 100,,,52.3,31.2,51.6,24.5,41.6,,,,,,,,
CC1CC2OC(=O)C3CC(O)CC(=C23)[C@@]12C[C@@H](c1ccoc1)OC2=O (stereo partly drawn),,,> 100,> 100,> 100,> 100,> 100,> 100,,> 100,,,,,,,,
COc1cc(/C=C\c2ccccn2)cc(OC)c1OC,> 100,,> 100,> 100,> 100,> 100,> 100,> 100,> 100,> 100,,,,,,,,
CC[C@H](C)[C@H]1NC(=O)[C@@H](NC(=O)[C@@H](CC(C)C)N(C)C(=O)[C@@H]2CCCN2C(=O)C(C)=O)[C@@H](C)OC(=O)[C@H](Cc2ccc(OC)cc2)N(C)C(=O)[C@@H]2CCCN2C(=O)[C@H](CC(C)C)NC(=O)[C@H](C(C)C)OC(=O)C[C@@H]1O (Pyruvoyl-P[dNMeL]T[X38][Hiv]LP[NMeY](Me); ester 3-C),0.0728,0.0599,0.721,0.154,0.351,,0.0397,0.0101,1.22,0.0261,,,,,,,,
C=C1C(=O)C([Si](C)(C)C)=C2C=C(C)C3(CC3)C12C (stereo not drawn),> 100,70.4,> 100,> 100,> 100,> 100,> 100,,> 100,> 100,,,,,,,,
CC#COP(=O)(OCC)OCC,> 100,,> 100,> 100,> 100,> 100,> 100,> 100,> 100,> 100,,,,,,,,
CCOC(C[C@H](O)[C@H]1COC(=S)S1)OCC,> 100,,> 100,> 100,,> 100,> 100,> 100,,> 100,,,,,,,,
COc1ccc2c(c1)CC[C@@H]1[C@@H]2CC[C@]2(C)C(=O)C3(CCCCC3)C[C@@H]12,> 100,,> 100,> 100,> 100,> 100,,> 100,> 100,> 100,> 100,> 100,> 100,> 100,> 100,> 100,31.9,> 100
O=C1C/C(=C/c2ccc(/C=C3/CC(=O)N(c4cccc(Br)c4)C3=O)cc2)C(=O)N1c1cccc(Br)c1,> 100,,> 100,> 100,> 100,> 100,> 100,> 100,> 100,> 100,,,,,,,,
COc1cc(NC(C)=O)c2[nH]c3c(C)cc(NC(C)=O)c(C)c3c2c1,,,> 100,> 100,> 100,> 100,> 100,> 100,> 100,> 100,,,,,,,,
Cc1occc1C(=S)Nc1ccc(Cl)c(C(=O)OCC(F)(F)F)c1,,43,43.9,39.3,45.9,56.3,34.6,18.1,82.6,> 100,,,,,,,,
CC(C)OP(=O)(OC(C)C)C(C(C)C)N(C)/C(N)=N\C1=NC(C(F)(F)F)(C(F)(F)F)N=C(C(C(F)(F)F)C(F)(F)F)O1 (stereo not drawn),18,32,44.9,11.2,,5.48,12.4,11.8,11.2,4.23,,,,,,,,
CCOC(=O)NC(C(F)(F)F)(C(F)(F)F)P(=O)(OC(C)C)OC(C)C,> 100,> 100,> 100,> 100,> 100,> 100,> 100,> 100,,,,,,,,,,
O=C(c1ccc(Cl)cc1Cl)N(C(=O)N1CCC(c2ccccc2)CC1)c1ccccc1,> 100,> 100,> 100,> 100,,> 100,> 100,> 100,> 100,> 100,,,,,,,,
NC(=O)C(Nc1c(Cl)cccc1Cl)c1cc2cc(Br)ccc2nc1Cl (stereo not drawn),> 100,> 100,> 100,,> 100,> 100,> 100,> 100,> 100,> 100,,,,,,,,
CCOC(=O)/C(N=Nc1ccc(-n2c(C)nc3ccccc3c2=O)cc1)=C(/C)O,> 100,> 100,> 100,> 100,,> 100,> 100,> 100,> 100,> 100,,,,,,,,
O=c1[nH]c(=O)n(C2OC(CO)C(O)C(F)C2O)cc1F (stereo not drawn),,> 100,> 100,> 100,> 100,> 100,> 100,> 100,> 100,> 100,,,,,,,,
C=C(c1ccccc1)C1ON(C)CCc2cc(OC)c(OC)cc21 (stereo not drawn),> 100,48.3,> 100,> 100,,> 100,> 100,> 100,> 100,> 100,,,,,,,,
COc1cc(OCc2ccc3nc(-c4ccccc4)c(N)nc3c2)cc(OC)c1OC,,56.8,> 100,> 100,34.6,> 100,81.2,44.2,71.4,29.3,,,,,,,,
